Reference: US10308644B2, “Heterocyclic compounds as immunomodulators” (Incyte Corporation, priority 2016, dated 2019)

biological target: PD-1/PD-L1 (Homo sapiens (Human), UniProt Q9NZQ7); experiment: PD-1/PD-L1 Homogeneous Time-Resolved Fluorescence (HTRF) Binding Assay; settings: recombinant human PD-1 (3 nM) and PD-L1 (10 nM), 25° C., PBS pH 7.4
Outline: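 Fc-tagged human PD-1 (25-167, 3 nM) and His-tagged PD-L1 (19-238, 10 nM) preincubated with inhibitor 40 min in PBS pH 7.4, 0.05% Tween-20, 0.1% BSA, 1% DMSO, 25 °C. Binding detected by HTRF (Eu anti-IgG/APC anti-His, 665/620 nm) after 60 min; IC50 from percent control activity.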

Chain of PD-1/PD-L1 (Q9NZQ7 19-238): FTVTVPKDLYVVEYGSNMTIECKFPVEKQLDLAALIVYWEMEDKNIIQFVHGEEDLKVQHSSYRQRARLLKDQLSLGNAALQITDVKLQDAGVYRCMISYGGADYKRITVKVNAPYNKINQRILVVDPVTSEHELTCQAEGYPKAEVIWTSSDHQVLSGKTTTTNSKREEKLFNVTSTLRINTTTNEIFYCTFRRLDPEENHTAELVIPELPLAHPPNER

Row | Structure (SMILES) | IC50 [µM]
1 | Cc1c(Nc2nccc3cc(CN4CC[C@@H](O)C4)cnc23)cccc1-c1cccc(-c2nc3cc(CN4CC[C@@H](C(=O)O)C4)cc(C#N)c3o2)c1Cl [Example 168, (R)-1-((2-(2-chloro-3′-(3-(((R)-3-hydroxypyrrolidin-1-yl)methyl)-1,7-naphthyridin-8-ylamino)-2′-methylbiphenyl-3-yl)-7-cyanobenzo[d]oxazol-5-yl)methyl)pyrrolidine-3-carboxylic acid] | ≤ 0.01
2 | Cc1c(-c2nc3c(o2)CN(C(=O)CN(C)C)C3)cccc1-c1cccc(-c2nc3cc(CN4CCC(C(=O)O)CC4)cc(C#N)c3o2)c1C [Example 246, 1-((7-cyano-2-(3′-(5-(dimethylglycyl)-5,6-dihydro-4H-pyrrolo[3,4-d]oxazol-2-yl)-2,2′-dimethyl-[1,1′-biphenyl]-3-yl)benzo[d]oxazol-5-yl)methyl)piperidine-4-carboxylic acid] | ≤ 0.01
3 | Cc1c(-c2nc3cc(CN4CC[C@H](C(=O)O)C4)cc(C#N)c3o2)cccc1-c1cccc(NC(=O)c2nc3c(n2C)CN(C)C3)c1Cl [Example 94, (S)-1-((2-(2′-chloro-3′-(1,5-dimethyl-1,4,5,6-tetrahydropyrrolo[3,4-d]imidazole-2-carboxamido)-2-methylbiphenyl-3-yl)-7-cyanobenzo[d]oxazol-5-yl)methyl)pyrrolidine-3-carboxylic acid] | ≤ 0.01
4 | Cc1c(Nc2nccc3cc(CN4CC[C@H](O)C4)cnc23)cccc1-c1cccc(-c2nc3cc(CN4CCC(C(=O)O)CC4)cc(Cl)c3o2)c1C [Example 22, (S)-1-((7-chloro-2-(3′-(3-((3-hydroxypyrrolidin-1-yl)methyl)-1,7-naphthyridin-8-ylamino)-2,2′-dimethylbiphenyl-3-yl)benzo[d]oxazol-5-yl)methyl)piperidine-4-carboxylic acid] | ≤ 0.01
5 | Cc1c(Nc2ncnc3cc(CN4CC[C@@H](O)C4)cnc23)cccc1-c1cccc(-c2nc3cc(CN4CC[C@@](C)(C(=O)O)C4)cc(C#N)c3o2)c1C [Example 205, (R)-1-((7-cyano-2-(3′-(7-(((R)-3-hydroxypyrrolidin-1-yl)methyl)pyrido [3,2-d]pyrimidin-4-ylamino)-2,2-dimethylbiphenyl-3-yl)benzo[d]oxazol-5-yl)methyl)-3-methylpyrrolidine-3-carboxylic acid] | ≤ 0.01
6 | Cc1c(-c2nc3cc(CN4CC[C@H](C(=O)O)C4)cc(Cl)c3o2)cccc1-c1cccc(Nc2nccc3cc(CN4CC[C@@H](O)C4)cnc23)c1Cl [Example 81, (S)-1-((7-chloro-2-(2′-chloro-3′-(3-(((R)-3-hydroxypyrrolidin-1-yl)methyl)-1,7-naphthyridin-8-ylamino)-2-methylbiphenyl-3-yl)benzo[d]oxazol-5-yl)methyl)pyrrolidine-3-carboxylic acid] | ≤ 0.01
7 | Cc1c(-c2nc3cc(CN4CC5CC4CC5O)cc(C#N)c3o2)cccc1-c1cccc(NC(=O)c2nc3c(n2C)CCN(CC2CCC(C(=O)O)CC2)C3)c1Cl (stereo not drawn) [Example 270, trans-4-((2-(2-chloro-3′-(7-cyano-5-((5-hydroxy-2-azabicyclo[2.2.1]heptan-2-yl)methyl)benzo[d]oxazol-2-yl)-2′-methylbiphenyl-3-ylcarbamoyl)-1-methyl-6,7-dihydro-1H-imidazo[4,5-c]pyridin-5(4H)-yl)methyl)cyclohexanecarboxylic acid] | ≤ 0.01
8 | Cc1c(Nc2nccc3cc(CN4CC[C@](C)(O)C4)cnc23)cccc1-c1cccc(-c2nc3cc(CN4CC[C@@H](C(=O)O)C4)cc(C#N)c3o2)c1C [Example 138, (R)-1-((7-cyano-2-(3′-(3-(((S)-3-hydroxy-3-methylpyrrolidin-1-yl)methyl)-1,7-naphthyridin-8-ylamino)-2,2′-dimethylbiphenyl-3-yl)benzo[d]oxazol-5-yl)methyl)pyrrolidine-3-carboxylic acid] | ≤ 0.01
9 | Cc1c(-c2nc3cc(CN4CC[C@@](C)(C(=O)O)C4)cc(C#N)c3o2)cccc1-c1cccc(NC(=O)c2nc3c(n2C)CN(C)C3)c1Cl [Example 158, (R)-1-((2-(2′-chloro-3′-(1,5-dimethyl-1,4,5,6-tetrahydropyrrolo[3,4-d]imidazole-2-carboxamido)-2-methylbiphenyl-3-yl)-7-cyanobenzo[d]oxazol-5-yl)methyl)-3-methyl pyrrolidine-3-carboxylic acid] | ≤ 0.01
10 | Cc1c(-c2nc3cc(CN4CCCC[C@H]4C(=O)O)cc(Cl)c3o2)cccc1-c1cccc(NC(=O)c2ccc(CN3CC[C@H](O)C3)cn2)c1Cl [Example 2, (S)-1-((7-chloro-2-(2′-chloro-3′-(5-(((S)-3-hydroxypyrrolidin-1-yl)methyl)picolinamido)-2-methyl-[1,1′-biphenyl]-3-yl)benzo[d]oxazol-5-yl)methyl)piperidine-2-carboxylic acid] | ≤ 0.01
11 | Cc1c(Nc2nccc3nccnc23)cccc1-c1cccc(-c2nc3cc(CN4CC[C@@H](C(=O)O)C4)cc(C#N)c3o2)c1C [Example 12, (R)-1-((7-cyano-2-(2,2′-dimethyl-3′-(pyrido[4,3-b]pyrazin-5-ylamino)biphenyl-3-yl)benzo[d]oxazol-5-yl)methyl)pyrrolidine-3-carboxylic acid] | ≤ 0.01

Other lines, results leading:

Row | IC50 [µM] | Structure (SMILES)
12 | ≤ 0.01 | Cc1c(-c2nc3cc(CN4CC[C@@](C)(C(=O)O)C4)cc(C#N)c3o2)cccc1-c1cccc(-c2nc3c(s2)CN(C(=O)CN2CC[C@H](O)C2)C3)c1C [Example 221, (R)-1-((7-cyano-2-(3′-(5-(2-((S)-3-hydroxypyrrolidin-1-yl)acetyl)-5,6-dihydro-4H-pyrrolo[3,4-d]thiazol-2-yl)-2,2′-dimethylbiphenyl-3-yl)benzo[d]oxazol-5-yl)methyl)-3-methylpyrrolidine-3-carboxylic acid]
13 | ≤ 0.01 | Cc1c(-c2nc3cc(CN4CC[C@@H](C(=O)O)C4)cc(C#N)c3o2)cccc1-c1cccc(-c2nc3c(s2)CN(C(=O)CN2CC[C@@](C)(O)C2)C3)c1C [Example 116, (R)-1-((7-cyano-2-(3′-(5-(2-((R)-3-hydroxy-3-methylpyrrolidin-1-yl)acetyl)-5,6-dihydro-4H-pyrrolo[3,4-d]thiazol-2-yl)-2,2′-dimethylbiphenyl-3-yl)benzo[d]oxazol-5-yl)methyl)pyrrolidine-3-carboxylic acid]
14 | ≤ 0.01 | Cc1c(-c2nc3cc(CN4CC[C@@](C)(C(=O)O)C4)cc(C#N)c3o2)cccc1-c1cccc(-c2nc3c(s2)CN(C(=O)CN2CC[C@@H](O)C2)C3)c1C [Example 222]
15 | ≤ 0.01 | Cc1c(-c2nc3cc(CN4CC[C@@](C)(C(=O)O)C4)cc(C#N)c3o2)cccc1-c1cccc(-c2nc3c(s2)CN(C(=O)CN(C)CCO)C3)c1C [Example 224, (R)-1-((7-cyano-2-(3′-(5-(2-((2-hydroxyethyl) (methyl)amino)acetyl)-5,6-dihydro-4H-pyrrolo[3,4-d]thiazol-2-yl)-2,2′-dimethylbiphenyl-3-yl)benzo[d]oxazol-5-yl)methyl)-3-methylpyrrolidine-3-carboxylic acid]
16 | ≤ 0.01 | Cc1c(-c2nc3cc(CN4CC[C@@H](C(=O)O)C4)cc(C#N)c3o2)cccc1-c1cccc(-c2nc3c(o2)CN(C(=O)CN2CC[C@@H](O)C2)C3)c1Cl [Example 256, (R)-1-((2-(2′-chloro-3′-(5-(2-((R)-3-hydroxypyrrolidin-1-yl)acetyl)-5,6-dihydro-4H-pyrrolo[3,4-d]oxazol-2-yl)-2-methyl-[1,1′-biphenyl]-3-yl)-7-cyanobenzo[d]oxazol-5-yl)methyl)pyrrolidine-3-carboxylic acid]
17 | ≤ 0.01 | Cc1c(-c2nc3c(o2)CN(C(=O)CN2CC(C)(O)C2)C3)cccc1-c1cccc(-c2nc3cc(CN4CC[C@@H](C(=O)O)C4)cc(C#N)c3o2)c1C [Example 129, (R)-1-((7-cyano-2-(3′-(5-(2-(3-hydroxy-3-methylazetidin-1-yl)acetyl)-5,6-dihydro-4H-pyrrolo[3,4-d]oxazol-2-yl)-2,2′-dimethyl-[1,1′-biphenyl]-3-yl)benzo[d]oxazol-5-yl)methyl)pyrrolidine-3-carboxylic acid]
18 | ≤ 0.01 | CCN1CCN(CC(=O)N2Cc3nc(-c4cccc(-c5cccc(-c6nc7cc(CN8CC[C@@](C)(C(=O)O)C8)cc(C#N)c7o6)c5C)c4C)sc3C2)CC1 [Example 223, (R)-1-((7-cyano-2-(3′-(5-(2-(4-ethylpiperazin-1-yl)acetyl)-5,6-dihydro-4H-pyrrolo[3,4-d]thiazol-2-yl)-2,2′-dimethylbiphenyl-3-yl)benzo[d]oxazol-5-yl)methyl)-3-methylpyrrolidine-3-carboxylic acid]
19 | ≤ 0.01 | Cc1c(-c2nc3c(o2)CN(C(=O)CCN(C)C)C3)cccc1-c1cccc(-c2nc3cc(CN4CC[C@@H](C(=O)O)C4)cc(C#N)c3o2)c1C [Example 125, (R)-1-((7-cyano-2-(3′-(5-(3-(dimethylamino)propanoyl)-5,6-dihydro-4H-pyrrolo[3,4-d]oxazol-2-yl)-2,2′-dimethyl-[1,1′-biphenyl]-3-yl)benzo[d]oxazol-5-yl)methyl)pyrrolidine-3-carboxylic acid]
20 | ≤ 0.01 | Cc1c(-c2nc3cc(CN4CC5(CC(C(=O)O)C5)C4)cc(C#N)c3o2)cccc1-c1cccc(-c2nc3c(s2)CN(C(=O)CN(C)CCO)C3)c1C [Example 230, 2-((7-cyano-2-(3′-(5-(2-((2-hydroxyethyl)(methyl)amino)acetyl)-5,6-dihydro-4H-pyrrolo[3,4-d]thiazol-2-yl)-2,2′-dimethylbiphenyl-3-yl)benzo[d]oxazol-5-yl)methyl)-2-azaspiro[3.3]heptane-6-carboxylic acid]
21 | ≤ 0.01 | Cc1c(-c2nc3cc(CN4CC[C@@H](C(=O)O)C4)cc(C#N)c3o2)cccc1-c1cccc(-c2nc3c(s2)CN(C(=O)CNC(C)C)C3)c1C [Example 110, (R)-1-((7-cyano-2-(3′-(5-(2-(isopropylamino)acetyl)-5,6-dihydro-4H-pyrrolo[3,4-d]thiazol-2-yl)-2,2′-dimethylbiphenyl-3-yl)benzo[d]oxazol-5-yl)methyl)pyrrolidine-3-carboxylic acid]
